What was measured:
[1] = Water content of highly crystalline Form A (Karl Fisher titration); type: physicochemical
Experimental: Highly crystalline Fluvastatin sodium Form A can generally be prepared by equilibration of an aqueous suspension or solution of Fluvastatin sodium for several hours at temperatures from about 0 to 10° C. and subsequent drying by lyophilization. The process can be accelerated by additional seeding with crystals of Form A during the equilibration period. A characteristic X-ray powder diffraction pattern for highly crystalline Form A is depicted in FIG. 1. The crystallinity of this material is estimated by the powder diffraction spectrum to be more than 90%. The estimated water content is below 2%.
A 30 ml aqueous solution of 30° C. containing ca. 3 grams of Fluvastatin sodium was cooled to about 2° C. and was allowed to stand at this temperature for 6 hours. Subsequently, the off-white coloured suspension was frozen using a dry-ice bath and dried by lyophilization for 24 hours. […] From its X-ray powder diffraction pattern it was estimated that the crystallinity is more than 90%, see FIG. 1.

[2] = Estimated water content of crystalline forms obtained by equilibration under defined relative humidity; type: physicochemical
Text: Forms C, D, E and F can be prepared according to a process, wherein Fluvastatin sodium is exposed to an atmosphere having a defined relative humidity. […] As a rule the estimated water content can range from 3-6%. […] As a rule the estimated water content can range from 6-12%. […] As a rule the estimated water content can range from 15-22%. […] As a rule the estimated water content can range from 24-32%.

[3] = compared with Form A or the amorphous form; from WO-A-97/49681 / U.S. Pat. No. 6,124,340; cited from earlier work

**Q.** What does the source list for `CC(C)n1c(/C=C/[C@H](O)C[C@H](O)CC(=O)[O-])c(-c2ccc(F)cc2)c2ccccc21.[Na+]` (racemic) [Form A, (±)-7-(3-(4-fluorophenyl)-1-(1-methylethyl)-1H-indol-2-yl)-3,5-dihydroxy-6-heptenoic acid monosodium salt]?
**A.** water content ([1]; Karl Fisher titration, Example 1, lyophilized 24 hours): below 2%; estimated water content ([1]; aqueous suspension or solution equilibrated at about 0 to 10° C., then lyophilization): below 2%

**Q.** For `CC(C)n1c(/C=C/[C@H](O)C[C@H](O)CC(=O)[O-])c(-c2ccc(F)cc2)c2ccccc21.[Na+]` (racemic) [Form D, (±)-7-(3-(4-fluorophenyl)-1-(1-methylethyl)-1H-indol-2-yl)-3,5-dihydroxy-6-heptenoic acid monosodium salt], which estimated water content ([2]; equilibration under relative humidity from about 30 to 50% (for example 6 to 24 hours)) is on record?
**A.** 6-12%

**Q.** For `CC(C)n1c(/C=C/[C@H](O)C[C@H](O)CC(=O)[O-])c(-c2ccc(F)cc2)c2ccccc21.[Na+]` (racemic) [Form F, (±)-7-(3-(4-fluorophenyl)-1-(1-methylethyl)-1H-indol-2-yl)-3,5-dihydroxy-6-heptenoic acid monosodium salt], which estimated water content ([2]; equilibration under relative humidity from about 80 to 90% (for example several days)) is on record?
**A.** 24-32%

**Q.** Which estimated water content ([2]; equilibration under relative humidity from about 15 to 25% (for example 6 to 24 hours)) does the source give for `CC(C)n1c(/C=C/[C@H](O)C[C@H](O)CC(=O)[O-])c(-c2ccc(F)cc2)c2ccccc21.[Na+]` (racemic) [Form C, (±)-7-(3-(4-fluorophenyl)-1-(1-methylethyl)-1H-indol-2-yl)-3,5-dihydroxy-6-heptenoic acid monosodium salt] here?
**A.** 3-6%

**Q.** With `CC(C)n1c(/C=C/[C@H](O)C[C@H](O)CC(=O)[O-])c(-c2ccc(F)cc2)c2ccccc21.[Na+]` (racemic) [Form E, (±)-7-(3-(4-fluorophenyl)-1-(1-methylethyl)-1H-indol-2-yl)-3,5-dihydroxy-6-heptenoic acid monosodium salt] as the compound, how does the estimated water content ([2]; equilibration under relative humidity from about 55 to 75% (for example several days)) read?
**A.** 15-22%

**Q.** Which hygroscopicity [3] does the source give for `CC(C)n1c(/C=C/[C@H](O)C[C@H](O)CC(=O)[O-])c(-c2ccc(F)cc2)c2ccccc21.[Na+]` (racemic) [Form B, (±)-7-(3-(4-fluorophenyl)-1-(1-methylethyl)-1H-indol-2-yl)-3,5-dihydroxy-6-heptenoic acid monosodium salt] here?
**A.** less hygroscopic than Form A or the amorphous form
